# Entries after “also recorded” stand apart in the source; their conditions may differ.
# What was measured:
# patients with PoPH = experiment: PORTICO: right heart catheterization hemodynamics at rest (PVR, mRAP, mPAP, cardiac index, TPR, SVO2, PAWP/LVEDP); assay type: in vivo, human
# Method: This study was designed as a randomized, double-blind (DB), placebo-controlled, prospective, multicenter, parallel group Phase 4 study assessing the efficacy and safety of macitentan in PoPH. The study design included an OL period following DB End of Treatment (EOT), the details of which are included below. The study design required approximately 84 adult patients with PoPH to be randomized (1:1) to receive either macitentan 10 mg, or matching placebo, once daily (o.d.) orally. Subject allocation to treatment groups was stratified by background PAH specific therapy receipt (yes/no). Stratification by region of enrollment was also performed as the number of enrolled patients per center was expected to be low, and variation in total patient numbers on a country-to-country level was expected. Based on an attrition rate of 10%, it was expected to have 76 evaluable patients at Week 12/End of Treatment (double-blind) (EOT-DB). Subjects were required to have a confirmed diagnosis of PoPH with a PVR of ≥4 Wood units (WU; ≥320 dyn·s·cm^−5) at enrollment but not have severe hepatic impairment (defined as Child-Pugh Class C or Model for End-Stage Liver Disease (MELD) score ≥19). Subjects were required to have 6-minute walk distance (6MWD) ≥50 m at enrollment but they could belong to any WHO FC. Patients were randomized at 36 sites in seven countries. The core study comprised the following periods:
# The primary efficacy endpoint was: • Relative change from baseline to Week 12 in PVR, expressed as ratio of Week 12 to baseline PVR (Week 12 PVR divided by baseline PVR).
# (i) Hemodynamic measurements—right heart catheterization: Invasive cardiac hemodynamic variables were measured according to the RHC guidelines at Baseline (Visit 1/Screening) and Week 12, or at permanent discontinuation of DB study treatment if prior to Week 12 (at the investigator's discretion). The thermodilution technique was used to measure cardiac output (CO). For each patient, a maximum of two RHC procedures were performed during the study. The following variables were measured: Heart rate (HR), PAWP or LVEDP (if PAWP is not available), mRAP, systolic/diastolic/mean pulmonary arterial pressure (PAP), CO, SVO2. PVR was calculated at Visit 1/Screening. The following hemodynamic variables were calculated for analysis purposes: PVR, TPR, cardiac index.
# The primary efficacy endpoint is: • Relative change from baseline to Week 12 in PVR, expressed as ratio of Week 12 to baseline PVR (Week 12 PVR divided by baseline PVR). • Calculated PVR was used for the efficacy analyses.
# The primary analysis was performed on the FAS and using calculated PVR. PVR was summarized by time point and treatment group using descriptive statistics. Ratio of Week 12 to baseline was summarized using geometric means and coefficients of variation (CVs). The ratio of Week 12 to baseline PVR was log-transformed (base e) and analyzed using ANCOVA with factors for treatment group (macitentan versus placebo), background PAH-specific therapy at baseline (Yes/No as per IXRS, randomization stratification factor), region (Europe/North America/Latin America as per IXRS, randomization stratification factor) and a covariate for baseline log-transformed PVR. The treatment group difference (on log scale) and its 95% confidence interval (2-sided) were estimated based on the model. The geometric mean ratio (macitentan versus placebo) and its 95% confidence interval (2-sided) were obtained by exponentiation. […] The log transformation for PVR is justified by the fact that ratios versus baseline follow a normal distribution more closely after a log transformation. In addition, mean absolute changes from baseline on log scale can be translated into (geometric) mean ratios by exponentiation.
# A sensitivity analysis was performed applying main ANCOVA analysis without the stratification factors (background PAH-specific therapy at baseline and region). […]
# [1] = prior nonclinical and clinical studies; cited from earlier work
# [2] = 10 mg o.d. oral, DB period, FAS with imputation, n=43
# [3] = 10 mg o.d., FAS with imputation, n=43
# [4] = Week 12 vs baseline, macitentan group
# [5] = change to Week 12, ANCOVA, FAS, listed as Macitentan
# [6] = patients receiving macitentan, FAS no imputation
smiles,measurement,setting,value
"CCCNS(=O)(=O)Nc1ncnc(OCCOc2ncc(Br)cn2)c1-c1ccc(Br)cc1 [macitentan, N-[5-(4-Bromophenyl)-6-[2-[(5-bromo-2-pyrimidinyl)oxy]ethoxy]-4-pyrimidinyl]-N′-propylsulfamide]","PVR at Week 12, mean",patients with PoPH; [2],350.3 dyn.sec/cm^5
same,"PVR at Week 12, median",patients with PoPH; [2],328.6 dyn.sec/cm^5
same,Mean (±SD) decrease in PVR from baseline to Week 12,"patients with PoPH; 10 mg o.d., FAS",202.1 (±123.56) dyn·sec/cm^5
same,"Change from baseline to Week 12 in PVR, mean",patients with PoPH; [3],−202.1 dyn.sec/cm^5
same,"Change from baseline to Week 12 in PVR, median",patients with PoPH; [3],−179.9 dyn.sec/cm^5
same,"Ratio of Week 12 to baseline PVR, geometric mean (95% CLs)",patients with PoPH; [3],"0.63 (0.58, 0.67)"
same,"Ratio of baseline PVR at Week 12, median",patients with PoPH; [3],0.60
same,"Ratio of Week 12 to baseline PVR, geometric mean (95% CLs)","patients with PoPH; 10 mg o.d., FAS with imputation, n=43, listed as Macitentan",0.63
same,"LS mean difference Macitentan 10 mg-Placebo, log(ratio of baseline PVR at Week 12)","patients with PoPH; ANCOVA, FAS",−0.43
same,LS mean of log(ratio of baseline PVR at Week 12),"patients with PoPH; ANCOVA, FAS, macitentan group",−0.41
same,Model-adjusted geometric mean of ratio of baseline PVR at Week 12,"patients with PoPH; ANCOVA, FAS, macitentan group",0.67
same,"SVO2 at Week 12, mean","patients with PoPH; FAS with imputation, n=41",70.3%
same,"SVO2 change from baseline to Week 12, mean","patients with PoPH; FAS with imputation, n=41",1.1%
same,"mRAP at Week 12, mean","patients with PoPH; FAS with imputation, n=42",9.0 mmHg
same,"mRAP change from baseline to Week 12, mean","patients with PoPH; FAS with imputation, n=42",1.6 mmHg
same,"Cardiac index at Week 12, mean","patients with PoPH; FAS with imputation, n=43",3.7 L/min/m^2
same,"Cardiac index change from baseline to Week 12, mean","patients with PoPH; FAS with imputation, n=43",0.6 L/min/m^2
same,"TPR at Week 12, mean","patients with PoPH; FAS with imputation, n=43",489.4 dyn · sec/cm^5
same,"TPR change from baseline to Week 12, mean","patients with PoPH; FAS with imputation, n=43",−199.8 dyn · sec/cm^5
same,"mPAP Change from baseline to Week 12, Mean","patients with PoPH; FAS with imputation, n=43",−6.4 mmHg
same,"mPAP at Week 12, mean","patients with PoPH; FAS with imputation, n=43",40.0 mmHg
same,Effect on PVR across demographic and baseline disease subgroups,"patients with PoPH; FAS, subgroup analyses, Week 12","consistent with the overall treatment effect, with no indication of heterogeneity"
same,"Geometric mean ratio of macitentan versus placebo (95% CLs), PVR, slope imputation","patients with PoPH; Week 12, ANCOVA, FAS N=85","0.65 (0.59, 0.72),"
same,"Model-adjusted geometric mean ratio of PVR (macitentan over placebo), primary analysis","patients with PoPH; Week 12, ANCOVA, FAS N=85","0.65 (0.59, 0.72), p < 0.0001"
same,"Difference in LS means macitentan-placebo, change from baseline in PVR (no log-transformation)","patients with PoPH; Week 12, ANCOVA, FAS N=85 (Table 10)",−180.71 dyn.sec/cm^5
same,"Model-adjusted geometric mean ratio of PVR (macitentan over placebo), primary analysis","patients with PoPH; Week 12, ANCOVA, FAS N=85, listed as Macitentan",0.65
same,Treatment effect: geometric mean ratio of PVR ratio (macitentan vs placebo),"patients with PoPH; Week 12, FAS with imputation, descriptive (Table 8)",0.64
same,"LS Mean difference (macitentan-placebo), ANCOVA (Absolute Change) of PVR","patients with PoPH; Week 12, N=85 (Table 12)",−180.71 meters
same,Reduction in PVR vs placebo,"patients with PoPH; Week 12, from adjusted geometric mean ratio",35%
same,Patients with an increase in PVR,patients with PoPH; [4],1 patient
same,Patients with no change in PVR,patients with PoPH; [4],1 patient
same,SVO2: difference in LS means macitentan-placebo,"patients with PoPH; change to Week 12, ANCOVA, FAS",No clinically significant effect; also recorded: No clinically relevant effect
same,mRAP: difference in LS means macitentan-placebo,"patients with PoPH; change to Week 12, ANCOVA, FAS",No clinically significant effect; also recorded: No clinically relevant effect
same,Cardiac index: difference in LS means macitentan-placebo,patients with PoPH; [5],0.52 L/min/m^2
same,SVO2: difference in LS means macitentan-placebo,patients with PoPH; [5],0.03%
same,TPR: difference in LS means macitentan-placebo,patients with PoPH; [5],−171.48 dyn · sec/cm^5
same,mPAP: difference in LS means macitentan-placebo,patients with PoPH; [5],−5.99 mmHg
same,mRAP: difference in LS means macitentan-placebo,patients with PoPH; [5],1.67 mmHg
same,PAWP/LVEDP treatment difference based on change from baseline to Week 12,patients with PoPH; macitentan vs placebo,2.4 mmHg
same,Mean PAWP/LVEDP (SD) at Week 12,patients with PoPH; [6],11.4 (4.2) mmHg
same,PAWP/LVEDP mean (SD) change from baseline at Week 12,patients with PoPH; [6],2.1 (3.7) mmHg
same,Toxicities associated with macitentan treatment,[1],"associated with teratogenicity, dose-related anemia/decrease in hemoglobin concentration, and hepatotoxicity"

# Source: patent US20220257595A1, “MACITENTAN FOR USE IN TREATING PORTOPULMONARY HYPERTENSION” (ACTELION PHARMACEUTICALS LTD, priority 2019, published 2022)
